As to `CCN(CC)CCn1ccc2cc(NS(=O)(=O)c3c(Cl)nc4sccn34)ccc21` [Example 27e, N-[1-(2-diethylaminoethyl)-1H-indole-5-yl]-6-chloroimidazo[2,1-b]thiazole-5-sulfonamide], the melting point was in the range of 68 to 70 °C.

In turn, `Cc1c(S(=O)(=O)Nc2ccc3[nH]cc(CN(C)C)c3c2)sc2ccc(Cl)cc12` [Example 30c, N-[3-dimethylaminomethyl-1H-indol-5-yl]-5-chloro-3-methylbenzo[b]thiophene-2-sulphonamide] had a melting point of 148 to 152 °C.

For the molecule `CCN(CC)CCn1ccc2cc(NS(=O)(=O)c3cccc4ccccc34)ccc21` [Example 30e, N-(1-(2-(diethylamino)ethyl)-1H-indol-5-yl)-naphthalene-1-sulfonamide], the melting point lay within 133 to 135 °C.

Consider `Cc1c(S(=O)(=O)Nc2ccc3c(c2)cc(C)n3CCN(C)C)sc2ccc(Cl)cc12` [Example 32e, 5-chloro-N-(1-(2-(dimethylamino)ethyl)-2-methyl-1H-indol-5-yl)-3-methylbenzo[b]thiophene-2-sulfonamide], for which the melting point is 203 to 205 °C.

Molecule `Cc1cc2cc(NS(=O)(=O)c3cccc4ccccc34)ccc2n1CCN(C)C` [Example 34e, N-(1-(2-(dimethylamino)ethyl)-2-methyl-1H-indol-5-yl)-naphthalene-1-sulfonamide] had a melting point of 183 to 184 °C.

Molecule `Cc1cc2cc(NS(=O)(=O)c3c(Cl)nc4sccn34)ccc2n1CCN(C)C` [Example 35e, 6-chloro-N-(1-(2-(dimethylamino)ethyl)-2-methyl-1H-indol-5-yl)imidazo[2,1-b]thiazole-5-sulfonamide] gave a melting point of 182 to 183 °C.

The molecule `Cc1cc2cc(NS(=O)(=O)c3ccc(-c4ccccc4)cc3)ccc2n1CCN(C)C` [Example 36e, N-(1-(2-(dimethylamino)ethyl)-2-methyl-1H-indol-5-yl)-4-phenylbenzenesulfonamide] gave a melting point of 176 to 177 °C.

In turn, `Cc1c(S(=O)(=O)Nc2ccc3[nH]cc(C4CCN5CCCC5C4)c3c2)sc2ccc(Cl)cc12` (centres unmarked) [Example 38c, N-[3-(octahydroindolizin-7-yl)-1H-indol-5-yl]-5-chloro-3-methylbenzo[b]thiophene-2-sulphonamide] registered a melting point of 142 to 144 °C.

In turn, `Cc1cc2cc(NS(=O)(=O)c3ccc(Oc4ccccc4)cc3)ccc2n1CCN(C)C` [Example 38e, N-(1-(2-(dimethylamino)ethyl)-2-methyl-1H-indol-5-yl)-4-phenoxy-benzenesulfonamide] displayed a melting point of 147 to 149 °C.

`Cc1cc2cc(NS(=O)(=O)c3cc(Cl)cc(Cl)c3)ccc2n1CCN(C)C` [Example 39e, 3,5-dichloro-N-(1-(2-(dimethylamino)ethyl)-2-methyl-1H-indol-5-yl)-benzenesulfonamide] yielded a melting point of 147 to 149 °C.

`Cc1cc2cc(NS(=O)(=O)c3csc4ccccc34)ccc2n1CCN(C)C` [Example 40e, N-(1-(2-(dimethylamino)ethyl)-2-methyl-1H-indol-5-yl)benzo[b]thiophene-3-sulfonamide] registered a melting point of 167 to 169 °C.

The molecule `CN1CCN(Cc2c[nH]c3ccc(NS(=O)(=O)Cc4ccccc4)cc23)CC1` [Example 41c, N-[3-(4-methylpiperazin-1-yl)methyl-1H-indol-5-yl]-α-toluenesulphonamide] gave a melting point of 99 to 102 °C.

Molecule `CCN(CC)CCn1ccc2cc(NS(=O)(=O)c3csc4ccccc34)ccc21` [Example 41e, N-(1-(2-(diethylamino)ethyl)-1H-indol-5-yl)benzo[b]thiophene-3-sulfonamide] had a melting point of 62 to 75 °C.

In the case of `CCN(CC)CCCc1c[nH]c2ccc(NS(=O)(=O)c3ccc4ccccc4c3)cc12` [Example 42c, N-[3-(3-diethylaminopropyl)-1H-indol-5-yl]naphthalene-2-sulphonamide], the melting point lay in the range of 128 to 130 °C.

As a reminder, the melting point is the temperature of the solid-liquid transition.
